System: HepaFH3 (proliferation-competent liver cells)
Conditions: human, 100 μM
Protocol: HepG2 cells (ATCC HB-8065) are cultivated in the medium DMEM PAA (Pasching, Austria), to which is added 10% FCS Gold, 2 mM L-glutamine, 100 U/mL penicillin, and 0.1 mg/mL streptomycin. Primary human hepatocytes (pHHs) are commercially obtained from, e.g., TebuBio (Le Perray-en-Yvelines, France) or Promocell (Heidelberg, Germany). The cells are seeded onto 50 μg/mL collagen type I (rat tail, BD Biosciences, San Jose, USA) coated cell culture plates and cultivated at 37° C. under 5% CO2 in hepatocyte growth medium (Promocell GmbH, Heidelberg, Germany) or equivalent cell culture media of other manufacturers known to the person skilled in the art. These pHHs can be used for metabolite production immediately or after production of proliferation-competent liver cells. To accomplish this, proliferation genes are transduced into the cells using a lentiviral vector. This technique is described in WO2009/030217A2 (Braspenning et al. (2007)). […] The proliferating hepatocyte clones (cell lines) are characterized with respect to their liver cell markers. […] For definition of sequences to generate primers, the person skilled in the art can use databases such as the NCBI GenBank® (http://www.ncbi.nlm.nih.gov/genbank) or the European Nucleotide Archive (http://www.ebi.ac.uk/ena/). For phase I, the most relevant enzymes are those of the cytochrome P450 (CYP) family. […]

With O=C(O)Cc1ccccc1Nc1c(Cl)cccc1Cl [Diclofenac] the “Metabolite 4′-OH-diclofenac formed” value was 7.13 ± 2.22 pmol/(min*10^6 cells).

From patent publication US10036052B2, “Method for producing biogenic substances” (BRANDENBURGISCHE TECHNISCHE UNIVERSITÄT COTTBUS-SENFTENBERG, priority 2013, dated 2018)
